# Data as given in patent US12583900B2, “Peptide conjugates and methods of use” (The Scripps Research Institute, priority 2019, dated 2026).
# Assays:
# Format in all cases: in vivo, mouse
# [1] = tested on: DIO mice (C57BL/6); assay: DIO mice study, daily s.c. dosing 21 days, plasma and liver analyses (28-week old)
# Text: All animal care and experimental procedures were approved by the Institutional Animal Care and Use Committee (IACUC) of California Institute for Biomedical Research (Calibr) and strictly followed the NIH guidelines for humane treatment of animals. The results are expressed as means S.E., and the data were compared using the unpaired Student's t test. Where appropriate, data were compared using repeated measures or one-way analysis of variance, followed by the Student-Newman-Keuls post hoc test. Incremental area under the curve (AUC) analyses for plasma glucose was calculated using GraphPad Prism 6.
# DIO mice (C57BL/6, male, 28-week old) were randomized based on their body weight and were treated with daily subcutaneous injections of peptide or vehicle (n=7/group). Body weight and food intake were monitored daily throughout the study. At the end of the experiment, mice were sacrificed, and visceral fat mass were weighed. Collected plasma was used for cholesterol level determination according to the manufacturer's guide (cholesterol assay kit, Abcam, Cambridge, England) and triglyceride level using a triglyceride colorimetric assay kit (Cayman chemical, Ann Arbor, Michigan).
# Collected plasma was used for cholesterol level determination according to the manufacturer's guide (cholesterol assay kit, Abcam, Cambridge, England). Briefly, plasma was diluted using cholesterol assay buffer and then reacted with the same volume of reaction mix containing cholesterol assay buffer, cholesterol probe, enzyme mix and cholesterol esterase. After incubation at 37° C. for 1 hour, the absorbance at 560 nm was measured using an Envision multilabel plate reader (PerkinElmer, Waltham, MA). Subsequently, the concentration of cholesterol in plasma was calculated according to a standard curve.
# Collected plasma was used for triglyceride level determination using a triglyceride colorimetric assay kit (Cayman chemical, Ann Arbor, Michigan). 5 μL of plasma samples or standard were plated into a 384 well plate and followed by adding 75 μL of diluted enzyme buffer to each well. The mixture was incubated at room temperature for 15 min, and the absorbance was read at 560 nm using an Envision plate reader (PerkinElmer, Waltham, MA). The concentration of triglyceride in plasma was calculated using a standard curve.
# Terminal serum analytes including total cholesterol, triglyceride, alanine aminotransferase (ALT), aspartate aminotransferase (AST), alkaline phosphatase (ALP) were determined by Alfa Wassermann Vet Axcel® clinical analyzer. Hepatic triglycerides were measured in liver homogenates generated with a colorimetric triglyceride kit (Cayman Chemical). Paraformaldehyde-fixed liver were paraffin-embedded, sectioned and stained with hematoxylin-eosin and Picro-Sirius red by HistoTox Labs (Boulder, CO). All histological assessment (steatosis, fibrosis scoring) were performed by a certified histopathologist blind to treatment (HistoTox Labs) based on classification outlined by Kleiner et al.^3
# [2] = tested on: C57BL/6J mice; assay: Oral glucose tolerance test 6 h, 48 h, 96 h post dose (GLP-1R/GCGR agonists); settings: 48 h after administration
# Description: C57BL/6J mice (n=6/group) between 10-12 weeks old were fasted overnight and then administrated with 5 mL/kg of each peptide in PBS (pH=8.2) by s.c. route. After 6 hours, mice were orally or intraperitoneally administrated with 2 g of glucose solution per kg body weight and their tail blood glucose levels were measured before (0 min) and after glucose challenge for 2 hours. Follow up OGTT were also performed at 48 h, and 96 h post-original dose in same mice after overnight fast.
# The efficacy of the GLP-1R/GCGR dual agonist 135 was then evaluated in an oral glucose tolerance test (OGTT) in wilt type mice.
# [3] = tested on: C57BL/6J mice; assay: Oral glucose tolerance test 2 h, 72 h, 96 h, […] post dose (GLP-1R/GIPR agonists)
# Description: C57BL/6J mice (n=6/group) between 10-12 weeks old were fasted overnight and then administrated with 5 mL/kg of each peptide in PBS (pH=8.2) by s.c. route. […]
compound,measurement,setting,value
CCCCCCCCCCCCCCCC(=O)N[C@@H](CCC(=O)NCCCC[C@H](NC(=O)[C@H](CC(=O)O)NC(=O)[C@H](CO)NC(=O)[C@@H](NC(=O)[C@H](Cc1ccccc1)NC(=O)[C@@H](NC(=O)CNC(=O)[C@H](CCC(N)=O)NC(=O)[C@H](CO)NC(=O)[C@@H](N)Cc1c[nH]cn1)[C@@H](C)O)[C@@H](C)O)C(=O)N[C@@H](CO)C(=O)N[C@@H](CCC(=O)O)C(=O)N[C@@H](Cc1ccc(O)cc1)C(=O)N[C@@H](CC(C)C)C(=O)N[C@@H](CC(=O)O)C(=O)N[C@@H](CO)C(=O)N[C@@H](CCC(=O)O)C(=O)N[C@@H](CCCNC(=N)N)C(=O)N[C@@H](C)C(=O)N[C@@H](CCCNC(=N)N)C(=O)N[C@@H](CC(=O)O)C(=O)N[C@@H](Cc1ccccc1)C(=O)N[C@H](C(=O)N[C@@H](C)C(=O)N[C@@H](Cc1c[nH]c2ccccc12)C(=O)N[C@@H](CC(C)C)C(=O)N[C@@H](CCC(=O)O)C(=O)N[C@@H](C)C(=O)NCC(=O)NCC(=O)O)C(C)C)C(=O)O [cotadutide],plasma glucose excursions in a fasted state,[1]; day 21,significant decrease
same,liver to bodyweight ratio,[1]; vs vehicle,significantly decreased
same,liver triglyceride level,[1]; vs vehicle,significantly decreased
same,liver weight,[1]; vs vehicle,significantly decreased
same,glucose handling in OGTT,[2],did not exhibit any improvement over the vehicle
semaglutide,food consumption over 20 days vs vehicle,"[1]; DIO mice, daily s.c.",reduction
same,total bodyweight and percent change from initial bodyweight over 21 days,"[1]; DIO mice, daily s.c.",decrease
same,plasma glucose excursions in a fed state,[1]; day 20,significant decrease
same,OGTT glucose levels over time and AUC,[1]; day 21,significant decrease
same,plasma glucose excursions in a fasted state,[1]; day 21,significant decrease
same,plasma level of ALP,"[1]; terminal, vs vehicle",significantly reduced
same,plasma level of ALT,"[1]; terminal, vs vehicle",significantly reduced
same,plasma level of cholesterol,"[1]; terminal, vs vehicle",significantly reduced
same,plasma level of triglycerides,"[1]; terminal, vs vehicle",significantly reduced
same,fat weight,[1]; vs vehicle,significantly reduced
same,liver to bodyweight ratio,[1]; vs vehicle,significantly decreased
same,liver triglyceride level,[1]; vs vehicle,significantly decreased
same,liver weight,[1]; vs vehicle,significantly decreased
same,steatosis grade,[1]; vs vehicle,reduced
same,OGTT blood glucose levels as measured by the AUC vs vehicle,[3]; 2 hours post dose,significant decrease
same,fasted glucose levels vs vehicle,[3]; 2 hours post treatment,significant decrease
same,OGTT blood glucose levels as measured by the AUC vs vehicle,[3]; 72 hours post dose,significant decrease
same,fasted glucose levels vs vehicle,[3]; 72 hours post treatment,significant decrease
same,OGTT blood glucose levels as measured by the AUC vs vehicle,[3]; 96 hours post dose,significant decrease
same,fasted glucose levels vs vehicle,[3]; 96 hours post treatment,significant decrease
same,OGTT blood glucose levels as measured by the AUC vs vehicle,[3]; […] post dose,significant decrease
same,fasted glucose levels vs vehicle,[3]; […] post treatment,significant decrease
